In paper PMC9138568 (2022):

Test system: G3-OTAapt1-FAM (F1) (DNA, aptamer) GGGGATCGGGTGTGGGTGGCGTAAAGGGAGCATC
Assay: fluorescence quenching (FAM, guanine PIET)
Conditions: Na+ 120 mM, Ca2+ 3 mM; 10 mM Tris-HCl pH 8.4, room temperature; 20 nM F1; calibration curve only

binding: yes
SMILES: C[C@@H]1Cc2c(Cl)cc(C(=O)N[C@@H](Cc3ccccc3)C(=O)O)c(O)c2C(=O)O1
